Earlier results in patent US20040047946A1, “Methods and formulations useful for lowering the cholesterol content of egg yolk” (Kapac, LLC, priority 2002, published 2004).

Experiments:
[1] = tested on: chickens; conditions: chickens fed 2% and 4% sitosterol emulsified with carboxymethyl cellulose
[2] = tested on: hens; conditions: hens fed 0.0265% lovastatin for 35 days

Row | SMILES | cholesterol and total sterol content of the egg [1] | level of egg yolk sitosterol [1] | less cholesterol in eggs than those from hens that received only a corn-soybean diet [2]
1 | CC[C@H](CC[C@@H](C)[C@H]1CC[C@H]2[C@@H]3CC=C4C[C@@H](O)CC[C@]4(C)[C@H]3CC[C@]12C)C(C)C [sitosterol] | significant reduction | increased | –
2 | CC[C@H](C)C(=O)O[C@H]1C[C@@H](C)C=C2C=C[C@H](C)[C@H](CC[C@@H]3C[C@@H](O)CC(=O)O3)[C@H]21 [lovastatin] | – | – | 15%
